In patent US11655235B2, “Pyrrolidine and piperidine compounds” (YUHAN CORPORATION, priority 2019, dated 2023):

Assays:
Format in all cases: biochemical
[1] = target: T1, recombinant human PREP (Homo sapiens, UniProt P48147); experiment: PREP inhibition, fluorogenic substrate Z-Gly-Pro-AMC; details: Inhibitory Activity (IC50, nM) PREP, recombinant human PREP
T1 construct: purchased R&D System
T1 sequence (P48147 1-710): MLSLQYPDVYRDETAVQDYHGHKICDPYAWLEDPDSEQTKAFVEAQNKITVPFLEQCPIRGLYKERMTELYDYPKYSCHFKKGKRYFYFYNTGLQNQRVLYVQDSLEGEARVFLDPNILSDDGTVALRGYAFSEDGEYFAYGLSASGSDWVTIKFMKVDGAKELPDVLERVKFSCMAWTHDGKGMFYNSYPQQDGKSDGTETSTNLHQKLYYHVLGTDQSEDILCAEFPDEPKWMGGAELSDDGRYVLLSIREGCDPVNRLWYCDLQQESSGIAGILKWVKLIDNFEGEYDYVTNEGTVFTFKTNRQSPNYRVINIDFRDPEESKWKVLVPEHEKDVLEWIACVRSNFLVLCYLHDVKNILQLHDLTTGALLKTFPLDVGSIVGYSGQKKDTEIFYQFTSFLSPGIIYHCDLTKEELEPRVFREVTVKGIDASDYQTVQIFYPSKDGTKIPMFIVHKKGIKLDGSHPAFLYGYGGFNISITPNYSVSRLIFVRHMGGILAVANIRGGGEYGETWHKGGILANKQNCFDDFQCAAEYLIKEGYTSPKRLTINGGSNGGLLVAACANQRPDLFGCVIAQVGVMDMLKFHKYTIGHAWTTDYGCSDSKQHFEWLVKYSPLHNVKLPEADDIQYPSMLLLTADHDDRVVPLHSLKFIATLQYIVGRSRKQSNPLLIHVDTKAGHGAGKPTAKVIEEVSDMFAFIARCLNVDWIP
Outline: (§1)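 Inhibitors are titrated in an 8-point series into the enzyme's assay buffer (DMSO no more than 0.5%). Substrate cleavage at 25 °C is followed by fluorescence, excitation 380 nm and emission 460 nm. IC50 values come from a four-variable logistic model.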

[2] = target: T2, recombinant human DPP9 (Homo sapiens, UniProt Q86TI2); experiment: DPP9 inhibition, fluorogenic substrate H-Gly-Pro-AMC; details: recombinant human DPP9
T2 construct: purchased R&D Systems
Outline: as §1

[3] = target: T3, Recombinant human FAP (Homo sapiens, UniProt Q12884); experiment: FAP FRET assay, FGF21-sequence FRET peptide substrate; details: FRET peptide with human FGF21 sequence, 6 μM, 37° C.
T3 construct: purchased R&D systems
T3 sequence (Q12884 1-760): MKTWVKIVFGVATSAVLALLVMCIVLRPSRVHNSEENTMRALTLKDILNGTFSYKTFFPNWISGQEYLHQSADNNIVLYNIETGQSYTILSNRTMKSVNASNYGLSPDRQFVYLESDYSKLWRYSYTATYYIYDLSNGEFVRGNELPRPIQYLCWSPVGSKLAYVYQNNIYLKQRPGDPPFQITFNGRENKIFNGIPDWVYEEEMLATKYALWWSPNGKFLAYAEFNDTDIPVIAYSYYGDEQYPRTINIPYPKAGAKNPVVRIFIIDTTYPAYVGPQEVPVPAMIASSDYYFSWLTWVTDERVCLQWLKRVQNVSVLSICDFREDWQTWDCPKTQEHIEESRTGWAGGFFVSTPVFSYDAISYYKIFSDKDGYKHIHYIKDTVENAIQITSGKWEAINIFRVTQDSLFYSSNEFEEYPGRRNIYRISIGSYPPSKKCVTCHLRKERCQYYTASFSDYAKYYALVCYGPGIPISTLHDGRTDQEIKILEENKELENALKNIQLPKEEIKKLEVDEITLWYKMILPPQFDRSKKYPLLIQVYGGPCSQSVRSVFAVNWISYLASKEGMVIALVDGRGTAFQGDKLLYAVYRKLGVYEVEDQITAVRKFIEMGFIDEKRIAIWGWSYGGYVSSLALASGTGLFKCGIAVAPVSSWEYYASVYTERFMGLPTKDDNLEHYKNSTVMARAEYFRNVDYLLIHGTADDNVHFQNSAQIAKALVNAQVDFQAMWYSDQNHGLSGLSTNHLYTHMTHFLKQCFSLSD
Outline: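 FRET peptide bearing human FGF21 sequence (6 μM final) cleaved by 10 ng recombinant human FAP at 37° C in HEPES pH 7.2 buffer with NaCl, BSA and EDTA, DMSO up to 0.1%. Signal-rate decrease versus uninhibited control fitted to a four-variable logistic model for IC50.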

[4] = target: T4, recombinant human DPP7 (Homo sapiens, UniProt Q9UHL4); experiment: DPP7 inhibition, fluorogenic substrate Lys-Pro-AMC; details: recombinant human DPP7
T4 construct: purchased R&D Systems
Outline: as §1

[5] = target: DPP4 (Homo sapiens, UniProt P27487); experiment: DPP4 inhibition, fluorogenic substrate H-Gly-Pro-AMC; design: purchased R&D Systems; details: recombinant human DPP4
[6] = target: T5, recombinant human DPP8 (Homo sapiens, UniProt Q6V1X1); experiment: DPP8 inhibition, fluorogenic substrate Z-Ala-Pro-AMC; details: recombinant human DPP8
T5 construct: purchased PBS Bioscience
Outline: as §1

T2 sequence (Q86TI2 whole entry): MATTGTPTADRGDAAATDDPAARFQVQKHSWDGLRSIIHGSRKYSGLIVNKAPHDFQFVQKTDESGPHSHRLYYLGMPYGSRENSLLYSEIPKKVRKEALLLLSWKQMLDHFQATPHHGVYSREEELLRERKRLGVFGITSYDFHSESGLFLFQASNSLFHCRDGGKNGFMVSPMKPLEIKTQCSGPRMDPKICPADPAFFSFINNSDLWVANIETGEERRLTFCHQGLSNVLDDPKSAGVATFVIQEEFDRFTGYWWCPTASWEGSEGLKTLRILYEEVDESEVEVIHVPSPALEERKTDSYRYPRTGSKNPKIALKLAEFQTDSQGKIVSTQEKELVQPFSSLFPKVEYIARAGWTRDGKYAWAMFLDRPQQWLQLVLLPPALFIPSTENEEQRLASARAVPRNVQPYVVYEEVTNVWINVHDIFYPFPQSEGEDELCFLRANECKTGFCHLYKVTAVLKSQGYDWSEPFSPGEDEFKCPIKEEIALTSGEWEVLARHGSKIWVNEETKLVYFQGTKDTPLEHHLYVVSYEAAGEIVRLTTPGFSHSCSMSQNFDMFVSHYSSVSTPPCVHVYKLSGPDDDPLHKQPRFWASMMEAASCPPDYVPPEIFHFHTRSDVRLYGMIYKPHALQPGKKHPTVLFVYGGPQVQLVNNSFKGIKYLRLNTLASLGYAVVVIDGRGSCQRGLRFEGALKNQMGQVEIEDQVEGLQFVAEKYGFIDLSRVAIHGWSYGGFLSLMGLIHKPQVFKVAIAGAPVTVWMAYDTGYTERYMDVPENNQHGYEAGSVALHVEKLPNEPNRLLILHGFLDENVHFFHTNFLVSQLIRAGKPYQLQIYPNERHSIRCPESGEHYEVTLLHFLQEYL
Chain of DPP4 (P27487 whole entry): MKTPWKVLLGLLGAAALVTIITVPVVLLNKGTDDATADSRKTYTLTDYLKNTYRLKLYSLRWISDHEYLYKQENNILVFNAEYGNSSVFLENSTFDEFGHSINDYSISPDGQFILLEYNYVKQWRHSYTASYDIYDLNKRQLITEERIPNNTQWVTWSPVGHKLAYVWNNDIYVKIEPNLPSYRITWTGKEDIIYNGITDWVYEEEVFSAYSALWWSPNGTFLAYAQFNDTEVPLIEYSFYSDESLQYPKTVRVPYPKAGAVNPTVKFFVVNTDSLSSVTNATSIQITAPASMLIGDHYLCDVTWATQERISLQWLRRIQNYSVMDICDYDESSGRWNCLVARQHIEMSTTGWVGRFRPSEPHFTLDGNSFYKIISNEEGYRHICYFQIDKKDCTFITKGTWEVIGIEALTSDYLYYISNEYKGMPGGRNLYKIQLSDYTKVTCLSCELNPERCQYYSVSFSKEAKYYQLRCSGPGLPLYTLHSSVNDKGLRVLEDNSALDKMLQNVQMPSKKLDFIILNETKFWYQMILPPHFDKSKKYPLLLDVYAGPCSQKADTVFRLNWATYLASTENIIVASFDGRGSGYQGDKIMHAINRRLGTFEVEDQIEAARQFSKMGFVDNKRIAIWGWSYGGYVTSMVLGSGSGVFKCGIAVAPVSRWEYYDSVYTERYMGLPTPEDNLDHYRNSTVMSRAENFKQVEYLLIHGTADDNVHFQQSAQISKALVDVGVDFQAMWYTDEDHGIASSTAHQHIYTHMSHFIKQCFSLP
T5 sequence (Q6V1X1 whole entry): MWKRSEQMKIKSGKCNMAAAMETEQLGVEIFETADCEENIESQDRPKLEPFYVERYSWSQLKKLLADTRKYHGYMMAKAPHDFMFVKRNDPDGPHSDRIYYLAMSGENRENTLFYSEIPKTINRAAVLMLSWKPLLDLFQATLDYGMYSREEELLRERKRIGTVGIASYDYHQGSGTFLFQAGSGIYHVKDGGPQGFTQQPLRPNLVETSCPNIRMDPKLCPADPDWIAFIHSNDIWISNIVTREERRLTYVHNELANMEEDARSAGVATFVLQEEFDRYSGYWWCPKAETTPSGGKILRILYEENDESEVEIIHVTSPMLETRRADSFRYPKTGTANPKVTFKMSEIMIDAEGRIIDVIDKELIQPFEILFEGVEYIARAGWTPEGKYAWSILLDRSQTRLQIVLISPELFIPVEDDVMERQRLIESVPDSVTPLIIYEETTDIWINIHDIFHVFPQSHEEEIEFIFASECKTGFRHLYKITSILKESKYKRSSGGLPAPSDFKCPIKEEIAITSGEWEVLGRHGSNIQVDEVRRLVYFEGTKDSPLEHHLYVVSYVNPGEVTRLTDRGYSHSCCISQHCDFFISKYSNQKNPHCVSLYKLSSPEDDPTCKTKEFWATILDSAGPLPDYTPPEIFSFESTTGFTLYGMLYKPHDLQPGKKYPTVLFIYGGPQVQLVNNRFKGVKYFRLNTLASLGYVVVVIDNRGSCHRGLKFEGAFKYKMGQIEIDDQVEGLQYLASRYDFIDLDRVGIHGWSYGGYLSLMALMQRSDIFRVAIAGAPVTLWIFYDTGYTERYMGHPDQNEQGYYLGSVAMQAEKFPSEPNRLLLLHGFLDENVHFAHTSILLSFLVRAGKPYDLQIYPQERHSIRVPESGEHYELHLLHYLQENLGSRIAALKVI

| SMILES | IC50 [1] [nM] | IC50 [2] [nM] | IC50 [3] [nM] | IC50 [4] [nM] | IC50 [5] [nM] | IC50 [6] [nM] |
| --- | --- | --- | --- | --- | --- | --- |
| N#C[C@@H]1C[C@H](F)CN1C(=O)CN1CC[C@@H](Nc2cccc3ncc(F)cc23)C1 [Example 184, (2S,4S)-4-fluoro-1-[2-[(3R)-3-[(3-fluoro-5-quinolyl)amino]pyrrolidin-1-yl]acetyl]pyrrolidine-2-carbonitrile] | 3150 | 5150 | 3.2 | 2760 | 1290 | 2430 |
| N#C[C@@H]1CCCN1C(=O)CN1CC[C@@H](Nc2ccc(F)c3ncccc23)C1 [Example 199, (2S)-1-[2-[(3R)-3-[(8-fluoro-5-quinolyl)amino]pyrrolidin-1-yl]acetyl]pyrrolidine-2-carbonitrile] | 7250 | 10900 | 2.3 | 8010 | 2620 | 8230 |
| N#C[C@@H]1CCCN1C(=O)CN1CC[C@@H](Nc2ccc(OC(F)(F)F)c3ncccc23)C1 [Example 202, (2S)-1-[2-[(3R)-3-[[8-(trifluoromethoxy)-5-quinolyl]amino]pyrrolidin-1-yl]acetyl]pyrrolidine-2-carbonitrile] | 8080 | 13100 | 2.3 | 6810 | 12100 | 14200 |
| CNC(=O)c1ccc(N[C@H]2CCN(CC(=O)N3C[C@@H](F)C[C@H]3C#N)C2)c2cccnc12 [Example 281, N-methyl-5-[[(3S)-1-[2-oxo-2-[(2S,4S)-2-cyano-4-fluoro-pyrrolidin-1-yl]ethyl]pyrrolidin-3-yl]amino]quinoline-8-carboxamide] | 2450 | 2600 | 3.4 | 1130 | 2750 | 4450 |
| CNC(=O)c1ccc(N[C@H]2CCN(CC(=O)N3CCC[C@H]3C#N)C2)c2cccnc12 [Example 286, N-methyl-5-[[(3S)-1-[2-oxo-2-[(2S)-2-cyanopyrrolidin-1-yl]ethyl]pyrrolidin-3-yl]amino]quinoline-8-carboxamide] | 6300 | 32200 | 9.3 | 3100 | 10900 | 19800 |
| N#C[C@@H]1CCCN1C(=O)CN1CCC(Nc2ccc(C(=O)Nc3ccccn3)c3ncccc23)CC1 [Example 399, 5-[[1-[2-oxo-2-[(2S)-2-cyanopyrrolidin-1-yl]ethyl]-4-piperidyl]amino]-N-(2-pyridyl)quinoline-8-carboxamide] | 627 | 3330 | 1.5 | 1010 | 17400 | 1200 |
| N#C[C@@H]1CCCN1C(=O)CN1CCC(Nc2ccc(C(=O)Nc3cccnc3)c3ncccc23)CC1 [Example 400, 5-[[1-[2-oxo-2-[(2S)-2-cyanopyrrolidin-1-yl]ethyl]-4-piperidyl]amino]-N-(3-pyridyl)quinoline-8-carboxamide] | 1960 | 2010 | 2.3 | 961 | 17400 | 971 |
| N#C[C@@H]1CCCN1C(=O)CN1CCC(Nc2ccc(C(=O)Nc3ccncc3)c3ncccc23)CC1 [Example 401, 5-[[1-[2-oxo-2-[(2S)-2-cyanopyrrolidin-1-yl]ethyl]-4-piperidyl]amino]-N-(4-pyridyl)quinoline-8-carboxamide] | 1200 | 1610 | 5.9 | 775 | 15200 | 266 |
| N#C[C@@H]1C[C@H](F)CN1C(=O)CN1CCC(Nc2ccc(C(=O)Nc3cccnc3)c3ncccc23)CC1 [Example 405, 5-[[1-[2-oxo-2-[(2S,4S)-2-cyano-4-fluoro-pyrrolidin-1-yl]ethyl]-4-piperidyl]amino]-N-(3-pyridyl)quinoline-8-carboxamide] | 597 | 398 | 1.9 | 392 | 2160 | 66.7 |
| N#C[C@@H]1C[C@H](F)CN1C(=O)CN1CCC(Nc2ccc(C(=O)Nc3ccncc3)c3ncccc23)CC1 [Example 406, 5-[[1-[2-oxo-2-[(2S,4S)-2-cyano-4-fluoro-pyrrolidin-1-yl]ethyl]-4-piperidyl]amino]-N-(4-pyridyl)quinoline-8-carboxamide] | 535 | 218 | 4.2 | 402 | 2700 | 23.3 |
| N#C[C@@H]1CCCN1C(=O)CN1CCC(Oc2ccnc3ccc(F)cc23)CC1 [Example 427, (2S)-1-[2-[4-[(6-fluoro-4-quinolyl)oxy]-1-piperidyl]acetyl]pyrrolidine-2-carbonitrile] | 5010 | ≥ 100000 | 5.6 | 15800 | 37200 | 36600 |

The next compounds have a lower IC50 [1] than those just listed; values first:

| IC50 [1] [nM] | IC50 [2] [nM] | IC50 [3] [nM] | IC50 [4] [nM] | IC50 [5] [nM] | IC50 [6] [nM] | SMILES |
| --- | --- | --- | --- | --- | --- | --- |
| 359 | 7830 | 3.7 | 1160 | 12400 | 1520 | N#C[C@@H]1CCCN1C(=O)CN1CCC(Nc2ccc(C(=O)Nc3ncccn3)c3ncccc23)CC1 [Example 402, 5-[[1-[2-oxo-2-[(2S)-2-cyanopyrrolidin-1-yl]ethyl]-4-piperidyl]amino]-N-pyrimidin-2-yl-quinoline-8-carboxamide] |
| 60.2 | 558 | 1.8 | 405 | 2080 | 251 | N#C[C@@H]1C[C@H](F)CN1C(=O)CN1CCC(Nc2ccc(C(=O)Nc3ncccn3)c3ncccc23)CC1 [Example 403, 5-[[1-[2-oxo-2-[(2S,4S)-2-cyano-4-fluoro-pyrrolidin-1-yl]ethyl]-4-piperidyl]amino]-N-pyrimidin-2-yl-quinoline-8-carboxamide] |
| 78.3 | 682 | 1.8 | 634 | 4730 | 596 | N#C[C@@H]1C[C@H](F)CN1C(=O)CN1CCC(Nc2ccc(C(=O)Nc3ccccn3)c3ncccc23)CC1 [Example 404, 5-[[1-[2-oxo-2-[(2S,4S)-2-cyano-4-fluoro-pyrrolidin-1-yl]ethyl]-4-piperidyl]amino]-N-(2-pyridyl)quinoline-8-carboxamide] |
| < 30 | 756 | 3.4 | 395 | 1820 | 314 | N#C[C@@H]1C[C@H](F)CN1C(=O)CN1CCC(Nc2ccc(C(=O)Nc3ccon3)c3ncccc23)CC1 [Example 407, N-isoxazol-3-yl-5-[[1-[2-oxo-2-[(2S,4S)-2-cyano-4-fluoro-pyrrolidin-1-yl]ethyl]-4-piperidyl]amino]quinoline-8-carboxamide] |
| 98 | 3890 | 5.1 | 3070 | 5680 | 3060 | N#C[C@@H]1C[C@H](F)CN1C(=O)CN1CCC(Oc2ccnc3cc(F)ccc23)CC1 [Example 433, (2S,4S)-4-fluoro-1-[2-[4-[(7-fluoro-4-quinolyl)oxy]-1-piperidyl]acetyl]pyrrolidine-2-carbonitrile] |
